{
  "source": "PubChem BioAssay AID2060504",
  "about": "(Molecular Pharmacology Branch, DTP, NCI, 2025)",
  "system": "636577-100-R-J1-PDC complex spheroid viability",
  "assay": "Anticancer human tumor 636577-100-R-J1-PDC patient-derived endometrial adenocarcinoma cell line growth inhibition [GQUAD]",
  "details": "for pIC50: curve of first compound; for viability, T/C: stronger effect = lower value",
  "outline": "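Tumor cells were grown as complex spheroids with HUVEC endothelial cells and mesenchymal stem cells as stroma. G-quadruplex stabilizers were combined with targeted agents over half-log dilutions from near the clinical Cmax, or from 10 microM.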",
  "key": {"[1]": {"details": "second compound 0.0316 µM, first compound 0.0316 µM"}, "[2]": {"details": "second compound 0.0316 µM, first compound 0.1 µM"}, "[3]": {"details": "second compound 0.0316 µM, first compound 0.316 µM"}, "[4]": {"details": "second compound 0.0316 µM, first compound 1 µM"}, "[5]": {"details": "second compound 0.0316 µM, first compound 3.16 µM"}, "[6]": {"details": "second compound 0.0316 µM, first compound 10 µM"}, "[7]": {"details": "second compound 0.1 µM, first compound 0.0316 µM"}, "[8]": {"details": "second compound 0.1 µM, first compound 0.1 µM"}, "[9]": {"details": "second compound 0.1 µM, first compound 0.316 µM"}, "[10]": {"details": "second compound 0.1 µM, first compound 1 µM"}, "[11]": {"details": "second compound 0.1 µM, first compound 3.16 µM"}, "[12]": {"details": "second compound 0.1 µM, first compound 10 µM"}, "[13]": {"details": "second compound 0.316 µM, first compound 0.0316 µM"}, "[14]": {"details": "second compound 0.316 µM, first compound 0.1 µM"}, "[15]": {"details": "second compound 0.316 µM, first compound 0.316 µM"}, "[16]": {"details": "second compound 0.316 µM, first compound 1 µM"}, "[17]": {"details": "second compound 0.316 µM, first compound 3.16 µM"}, "[18]": {"details": "second compound 0.316 µM, first compound 10 µM"}, "[19]": {"details": "second compound 1 µM, first compound 0.0316 µM"}, "[20]": {"details": "second compound 1 µM, first compound 0.1 µM"}, "[21]": {"details": "second compound 1 µM, first compound 0.316 µM"}, "[22]": {"details": "second compound 1 µM, first compound 1 µM"}, "[23]": {"details": "second compound 1 µM, first compound 3.16 µM"}, "[24]": {"details": "second compound 1 µM, first compound 10 µM"}, "[25]": {"details": "second compound 3.16 µM, first compound 0.0316 µM"}, "[26]": {"details": "second compound 3.16 µM, first compound 0.1 µM"}, "[27]": {"details": "second compound 3.16 µM, first compound 0.316 µM"}, "[28]": {"details": "second compound 3.16 µM, first compound 1 µM"}, "[29]": {"details": "second compound 3.16 µM, first compound 3.16 µM"}, "[30]": {"details": "second compound 3.16 µM, first compound 10 µM"}, "[31]": {"details": "second compound 10 µM, first compound 0.0316 µM"}, "[32]": {"details": "second compound 10 µM, first compound 0.1 µM"}, "[33]": {"details": "second compound 10 µM, first compound 0.316 µM"}, "[34]": {"details": "second compound 10 µM, first compound 1 µM"}, "[35]": {"details": "second compound 10 µM, first compound 3.16 µM"}, "[36]": {"details": "second compound 10 µM, first compound 10 µM"}},
  "note": "pIC50: −log10 of the molar value.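 Note: viability read after seven days of drug exposure.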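 Throughout, for viability, T/C: luminescence signal used as a proxy for viable cells; 100% = DMSO vehicle control wells.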",
  "data": [
    {"smiles": "C=CC(=O)N1CCN(c2nc(=O)n(-c3c(C)ccnc3C(C)C)c3nc(-c4c(O)cccc4F)c(F)cc23)C(C)C1", "note": "(centres undefined) + Cc1cnc(CNC(=O)c2c(=O)c3ccc(N4CCCN(C)CC4)nc3n3c2sc2ccccc23)cn1", "values": [
      {"measurement": "pIC50", "setting": "second compound 0.0316 µM", "result": "> 7.50"},
      {"measurement": "pIC50", "setting": "second compound 0.1 µM", "result": "> 7.50"},
      {"measurement": "pIC50", "setting": "second compound 0.316 µM", "result": "> 7.50"},
      {"measurement": "pIC50", "setting": "second compound 1 µM", "result": "> 7.50"},
      {"measurement": "pIC50", "setting": "second compound 3.16 µM", "result": "> 7.50"},
      {"measurement": "pIC50", "setting": "second compound 10 µM", "result": "> 7.50"},
      {"measurement": "viability, T/C", "setting": "[1]", "result": 41.6, "unit": "%"},
      {"measurement": "viability, T/C", "setting": "[2]", "result": 45.5, "unit": "%"},
      {"measurement": "viability, T/C", "setting": "[3]", "result": 43.1, "unit": "%"},
      {"measurement": "viability, T/C", "setting": "[4]", "result": 45.7, "unit": "%"},
      {"measurement": "viability, T/C", "setting": "[5]", "result": 51, "unit": "%"},
      {"measurement": "viability, T/C", "setting": "[6]", "result": 43, "unit": "%"},
      {"measurement": "viability, T/C", "setting": "[7]", "result": 28.8, "unit": "%"},
      {"measurement": "viability, T/C", "setting": "[8]", "result": 30.6, "unit": "%"},
      {"measurement": "viability, T/C", "setting": "[9]", "result": 31.7, "unit": "%"},
      {"measurement": "viability, T/C", "setting": "[10]", "result": 33.1, "unit": "%"},
      {"measurement": "viability, T/C", "setting": "[11]", "result": 35.1, "unit": "%"},
      {"measurement": "viability, T/C", "setting": "[12]", "result": 28.1, "unit": "%"},
      {"measurement": "viability, T/C", "setting": "[13]", "result": 24.7, "unit": "%"},
      {"measurement": "viability, T/C", "setting": "[14]", "result": 25.1, "unit": "%"},
      {"measurement": "viability, T/C", "setting": "[15]", "result": 25.2, "unit": "%"},
      {"measurement": "viability, T/C", "setting": "[16]", "result": 29.9, "unit": "%"},
      {"measurement": "viability, T/C", "setting": "[17]", "result": 31.1, "unit": "%"},
      {"measurement": "viability, T/C", "setting": "[18]", "result": 28, "unit": "%"},
      {"measurement": "viability, T/C", "setting": "[19]", "result": 24.6, "unit": "%"},
      {"measurement": "viability, T/C", "setting": "[20]", "result": 22.8, "unit": "%"},
      {"measurement": "viability, T/C", "setting": "[21]", "result": 24.1, "unit": "%"},
      {"measurement": "viability, T/C", "setting": "[22]", "result": 25.4, "unit": "%"},
      {"measurement": "viability, T/C", "setting": "[23]", "result": 21.7, "unit": "%"},
      {"measurement": "viability, T/C", "setting": "[24]", "result": 25.7, "unit": "%"},
      {"measurement": "viability, T/C", "setting": "[25]", "result": 24, "unit": "%"},
      {"measurement": "viability, T/C", "setting": "[26]", "result": 21.5, "unit": "%"},
      {"measurement": "viability, T/C", "setting": "[27]", "result": 25.9, "unit": "%"},
      {"measurement": "viability, T/C", "setting": "[28]", "result": 27.9, "unit": "%"},
      {"measurement": "viability, T/C", "setting": "[29]", "result": 29.5, "unit": "%"},
      {"measurement": "viability, T/C", "setting": "[30]", "result": 26.8, "unit": "%"},
      {"measurement": "viability, T/C", "setting": "[31]", "result": 21.5, "unit": "%"},
      {"measurement": "viability, T/C", "setting": "[32]", "result": 22.9, "unit": "%"},
      {"measurement": "viability, T/C", "setting": "[33]", "result": 23.9, "unit": "%"},
      {"measurement": "viability, T/C", "setting": "[34]", "result": 22.1, "unit": "%"},
      {"measurement": "viability, T/C", "setting": "[35]", "result": 26.7, "unit": "%"},
      {"measurement": "viability, T/C", "setting": "[36]", "result": 25.2, "unit": "%"}
    ]},
    {"smiles": "CC1COCCN1c1cc(C2(S(C)(=N)=O)CC2)nc(-c2ccnc3[nH]ccc23)n1", "note": "(centres undefined) + Cc1[nH]c2ccc(F)cc2c1-c1nc2c3cccnc3c3ncccc3c2[nH]1", "values": [
      {"measurement": "pIC50", "setting": "second compound 0.0316 µM", "result": 5.93},
      {"measurement": "pIC50", "setting": "second compound 0.1 µM", "result": 6.19},
      {"measurement": "pIC50", "setting": "second compound 0.316 µM", "result": 6.17},
      {"measurement": "pIC50", "setting": "second compound 1 µM", "result": 6.30},
      {"measurement": "pIC50", "setting": "second compound 3.16 µM", "result": "> 7.50"},
      {"measurement": "pIC50", "setting": "second compound 10 µM", "result": 6.40},
      {"measurement": "viability, T/C", "setting": "[1]", "result": 57.4, "unit": "%"},
      {"measurement": "viability, T/C", "setting": "[2]", "result": 83.1, "unit": "%"},
      {"measurement": "viability, T/C", "setting": "[3]", "result": 94.3, "unit": "%"},
      {"measurement": "viability, T/C", "setting": "[4]", "result": 54.7, "unit": "%"},
      {"measurement": "viability, T/C", "setting": "[5]", "result": 27.9, "unit": "%"},
      {"measurement": "viability, T/C", "setting": "[6]", "result": 15.1, "unit": "%"},
      {"measurement": "viability, T/C", "setting": "[7]", "result": 93.4, "unit": "%"},
      {"measurement": "viability, T/C", "setting": "[8]", "result": 72, "unit": "%"},
      {"measurement": "viability, T/C", "setting": "[9]", "result": 64.8, "unit": "%"},
      {"measurement": "viability, T/C", "setting": "[10]", "result": 43.1, "unit": "%"},
      {"measurement": "viability, T/C", "setting": "[11]", "result": 27.2, "unit": "%"},
      {"measurement": "viability, T/C", "setting": "[12]", "result": 15.7, "unit": "%"},
      {"measurement": "viability, T/C", "setting": "[13]", "result": 51.2, "unit": "%"},
      {"measurement": "viability, T/C", "setting": "[14]", "result": 101, "unit": "%"},
      {"measurement": "viability, T/C", "setting": "[15]", "result": 63.3, "unit": "%"},
      {"measurement": "viability, T/C", "setting": "[16]", "result": 40.4, "unit": "%"},
      {"measurement": "viability, T/C", "setting": "[17]", "result": 23.5, "unit": "%"},
      {"measurement": "viability, T/C", "setting": "[18]", "result": 12.2, "unit": "%"},
      {"measurement": "viability, T/C", "setting": "[19]", "result": 50.7, "unit": "%"},
      {"measurement": "viability, T/C", "setting": "[20]", "result": 77.8, "unit": "%"},
      {"measurement": "viability, T/C", "setting": "[21]", "result": 60.8, "unit": "%"},
      {"measurement": "viability, T/C", "setting": "[22]", "result": 33.2, "unit": "%"},
      {"measurement": "viability, T/C", "setting": "[23]", "result": 22.3, "unit": "%"},
      {"measurement": "viability, T/C", "setting": "[24]", "result": 12.8, "unit": "%"},
      {"measurement": "viability, T/C", "setting": "[25]", "result": 28.7, "unit": "%"},
      {"measurement": "viability, T/C", "setting": "[26]", "result": 49, "unit": "%"},
      {"measurement": "viability, T/C", "setting": "[27]", "result": 31, "unit": "%"},
      {"measurement": "viability, T/C", "setting": "[28]", "result": 23.1, "unit": "%"},
      {"measurement": "viability, T/C", "setting": "[29]", "result": 15.9, "unit": "%"},
      {"measurement": "viability, T/C", "setting": "[30]", "result": 9.24, "unit": "%"},
      {"measurement": "viability, T/C", "setting": "[31]", "result": 46, "unit": "%"},
      {"measurement": "viability, T/C", "setting": "[32]", "result": 59.8, "unit": "%"},
      {"measurement": "viability, T/C", "setting": "[33]", "result": 56.5, "unit": "%"},
      {"measurement": "viability, T/C", "setting": "[34]", "result": 32.5, "unit": "%"},
      {"measurement": "viability, T/C", "setting": "[35]", "result": 18.6, "unit": "%"},
      {"measurement": "viability, T/C", "setting": "[36]", "result": 12.9, "unit": "%"}
    ]}
  ]
}
